≈ marks a conversion by molar mass, not a printed value.
What was measured:
Assay type in all cases: functional
Conditions in all cases: time 1 weeks
[1] = system: Mycobacterium tuberculosis; assay: Antimycobacterial activity against high-grade isoniazid resistant Mycobacterium tuberculosis clinical isolate harboring katG S315T mutant incubated for 1 week by resazurin dye based fluorescence analysis
[2] = system: Mycobacterium tuberculosis; assay: Antimycobacterial activity against high-grade isoniazid, rifampicin, ethambutol and pyrazinamide resistant Mycobacterium tuberculosis clinical isolate harboring mutations in inhA, katG, rpoB H526D, eis genes incubated for 1 week by resazurin dye based fluorescence analysis
[3] = system: Mycobacterium tuberculosis; assay: Antimycobacterial activity against high-grade rifampicin resistant Mycobacterium tuberculosis clinical isolate harboring rpoB S531L mutant incubated for 1 week by resazurin dye based fluorescence analysis
[4] = system: Mycobacterium tuberculosis; assay: Antimycobacterial activity against low-grade isoniazid resistant Mycobacterium tuberculosis clinical isolate harboring mutation in inhA promoter region incubated for 1 week by resazurin dye based fluorescence analysis

SMILES | MIC50 [1] [µM] | MIC50 [2] [µM] | MIC50 [3] [µM] | MIC50 [4] [µM]
O=C1O[C@@H](CNS(=O)(=O)c2cccs2)CN1c1ccc(N2CCOCC2)c(F)c1 | 4.52 (≈ 2 µg/mL) | 7.01 (≈ 3.09 µg/mL) | 3.32 (≈ 1.47 µg/mL) | 1.98 (≈ 0.874 µg/mL)
O=C(NC[C@H]1CN(c2ccc(N3CCOCC3)c(F)c2)C(=O)O1)C1CC1 | 1.53 (≈ 0.556 µg/mL) | 1.99 (≈ 0.723 µg/mL) | 0.82 (≈ 0.298 µg/mL) | 0.33 (≈ 0.12 µg/mL)
O=C(NC[C@H]1CN(c2ccc(N3CCOCC3)c(F)c2)C(=O)O1)c1cccs1 | 4.01 (≈ 1.63 µg/mL) | 5.01 (≈ 2.03 µg/mL) | 2.78 (≈ 1.13 µg/mL) | 1.78 (≈ 0.722 µg/mL)
CCS(=O)(=O)NC[C@H]1CN(c2ccc(N3CCOCC3)c(F)c2)C(=O)O1 | 0.53 (≈ 0.205 µg/mL) | 0.92 (≈ 0.356 µg/mL) | 0.24 (≈ 0.093 µg/mL) | 0.14 (≈ 0.0542 µg/mL)
CS(=O)(=O)NC[C@H]1CN(c2ccc(N3CCOCC3)c(F)c2)C(=O)O1 | 10.35 (≈ 3.86 µg/mL) | 8.83 (≈ 3.3 µg/mL) | 1.82 (≈ 0.68 µg/mL) | 0.85 (≈ 0.317 µg/mL)
NNC(=O)c1ccncc1 [ISONIAZID] | 11.06 (≈ 1.52 µg/mL) | >100 | 23.03 (≈ 3.16 µg/mL) | 0.98 (≈ 0.134 µg/mL)
CC(=O)NC[C@H]1CN(c2ccc(N3CCOCC3)c(F)c2)C(=O)O1 [LINEZOLID] | 0.42 (≈ 0.142 µg/mL) | 0.81 (≈ 0.273 µg/mL) | 0.24 (≈ 0.081 µg/mL) | 0.12 (≈ 0.0405 µg/mL)
CO[C@H]1/C=C/O[C@@]2(C)Oc3c(C)c(O)c4c(O)c(c(/C=N/N5CCN(C)CC5)c(O)c4c3C2=O)NC(=O)/C(C)=C\C=C\[C@H](C)[C@H](O)[C@@H](C)[C@@H](O)[C@@H](C)[C@H](OC(C)=O)[C@@H]1C [RIFAMPIN] | <0.04 | >100 | 28.15 (≈ 23.2 µg/mL) | <0.04
